Measured values reported in patent publication US8629273B2, “Diazinylpyrazolyl compounds” (Bayer Intellectual Property GmbH, priority 2009, dated 2014).

Columns and labels:
[1] = system: Lucilia cuprina larvae; experiment: Lucilia cuprina test (LUCICU); assay type: in vivo; conditions: 100 ppm, treated horse meat, after 2 days
In short: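 Horse meat treated with compound diluted in water from DMSO concentrate, then populated with larvae. Mortality scored after 2 days as percent kill, 100% meaning all larvae dead.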

[2] = system: adult Musca domestica; experiment: Musca domestica test (MUSCDO); assay type: in vivo; conditions: treated sponge
In short: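 Compound taken up in DMSO and diluted with water to test concentration, applied to a sponge in vessels then stocked with adult houseflies. Kill % scored after the set period; 100% = all flies dead, 0% = none.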

[3] = system: caterpillars of the army worm (Spodoptera frugiperda); experiment: Spodoptera frugiperda test (SPODFR spray treatment); assay type: in vivo; conditions: after 7 days
In short: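 Maize leaf discs sprayed with compound in acetone/DMF with alkylaryl polyglycol ether emulsifier, diluted in emulsifier-containing water to the test concentration. Once dry, discs were infested with army worm caterpillars. Mortality scored after 7 days as % activity (100% = all caterpillars killed).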

[4] = system: larvae of the mustard beetle (Phaedon cochleariae); experiment: Phaedon test (PHAECO spray treatment); assay type: in vivo; conditions: 100 g/ha, after 7 days
In short: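 Chinese cabbage leaf discs were sprayed with compound formulated in acetone/dimethyl formamide plus alkylaryl polyglycol ether emulsifier, diluted in emulsifier-containing water to the desired concentration. After drying, discs were infested with mustard beetle larvae. Mortality (%) was scored after 7 days, where 100% means all larvae killed.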

[5] = logP by HPLC on reversed-phase columns (C 18), EU Guideline 79/831 Annex V.A8; assay type: physicochemical
[6] = system: Boophilus microplus; experiment: Boophilus microplus test (BOOPMI injection); assay type: in vivo; conditions: 20 μg/animal, injected into the abdomen, after 7 days
In short: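 Compound dissolved in DMSO, diluted with water and injected into the tick abdomen; ticks kept in a climatized room. Fertile egg deposition assessed after 7 days; 100% means no tick laid fertile eggs.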

[7] = system: green peach affid (Myzus persicae); experiment: Myzus test (MYZUPE spray treatment); assay type: in vivo; conditions: 100 g/ha, after 6 days
Procedure: Solvents: 78 parts by weight of acetone
• 1.5 parts by weight of dimethyl formamide Emulsifier: 0.5 part by weight of alkylaryl polyglycol ether
To produce a suitable preparation of active compound, 1 part by weight of active compound is mixed with the stated amounts of solvent and emulsifier, and the concentrate is diluted with emulsifier-containing water to the desired concentration.
Discs of Chinese cabbage leaves (Brassica pekinensis) infested by all stages of the green peach affid (Myzus persicae) are sprayed with an active compound preparation of the desired concentration.
After 6 days, the activity in % is determined. 100% means that all affids have been killed; 0% means that none of the affids have been killed.

[8] = system: greenhouse red spider mite (Tetranychus urticae); experiment: Tetranychus test, OP resistant (TETRUR spray treatment); assay type: in vivo; conditions: after 6 days
Procedure: Solvents: 78.0 parts by weight of acetone • • 1.5 parts by weight of dimethyl formamide Emulsifier: 0.5 part by weight of alkylaryl polyglycol ether To produce a suitable preparation of active compound, 1 part by weight of active compound is mixed with the stated amounts of solvent and emulsifier, and the concentrate is diluted with emulsifier-containing water to the desired concentration. Discs of bean leaves (Phaseolus vulgaris) which are infested by all stages of the greenhouse red spider mite (Tetranychus urticae) are sprayed with an active compound preparation of the desired concentration. After 6 days, the activity in % is determined. 100% means that all spider mites have been killed; 0% means that none of the spider mites has been killed. The test was carried out and evaluated as described in Example B.7.

[9] = system: Ctenocephalides felis; experiment: Ctenocephalides felis oral (CTECFE); assay type: in vivo; conditions: 100 ppm in citrated cattle blood, after 2 days
In short: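 Twenty unfed adult fleas fed through parafilm on citrated cattle blood containing compound, diluted from a DMSO concentrate (10 mg per 0.5 ml). Kill % scored after 2 days (100% = all dead, 0% = none).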

[10] = system: Boophilus microplus strain Parkhurst (SP-resistant); experiment: Boophilus microplus test (DIP); assay type: in vivo; conditions: 100 ppm
Procedure: Test animals: adult fed females of the Boophilus microplus strain Parkhurst (SP-resistant)
Solvent: Dimethyl sulphoxide
10 mg of active compound are dissolved in 0.5 ml of dimethyl sulphoxide. To produce a suitable formulation, the active compound solution is diluted with water to the particular desired concentration. This active compound preparation is pipetted into tubes. 8-10 ticks are transferred into a further tube provided with holes. The tube is dipped into the active compound preparation, with all ticks being wetted completely. After the liquid has run off, the ticks are transferred to filter discs in plastic dishes and kept in a climatized room. After the desired period of time, the activity is checked for deposition of fertile eggs. Eggs whose fertility is not visible from the outside are kept in glass tubes in a climatized cupboard under the larvae have hatched. An activity of 100% means that no tick has laid fertile eggs.

[11] = ** LC-MS in the neutral range, pH 7.8, 0.001 molar aqueous ammonium bicarbonate and acetonitrile

Compound | kill [1] | kill ([2]; 100 ppm) | activity (caterpillars killed) ([3]; 100 g/ha) | activity (beetle larvae killed) [4] | logP ([5]; * LC-MS in the acidic range, pH 2.7, 0.1% aqueous formic acid and acetonitrile) | logP [5, 11] | activity (no deposition of fertile eggs) [6] | activity (affids killed) [7] | activity (spider mites killed) ([8]; 100 g/ha) | kill [9] | kill ([2]; 20 ppm) | activity (caterpillars killed) ([3]; 20 g/ha) | activity (spider mites killed) ([8]; 20 g/ha) | activity (no deposition of fertile eggs) [10]
CCOC=Nc1c(-c2cc(Cl)cc(C(F)(F)F)c2)c(C(F)(F)F)nn1-c1ncccn1 [Example 1-11] | 100% | 80% | 100% | 100% | 4.61* | 4.58**; | 100% | 90% |  |  |  |  |  | 
CCCCOC=Nc1c(-c2cc(Cl)cc(C(F)(F)F)c2)c(C(F)(F)F)nn1-c1ncccn1 [Example 1-15] | 100% | 80% | 100% | 100% |  | 5.24** | 100% | 80% | 100% | 100% |  |  |  | 
FC(F)(F)c1nn(-c2ncccn2)c(N=Cc2ccccc2)c1-c1cc(Cl)c2c(c1)OCO2 [Example 1-18] | 100% |  | 100% | 100% |  | 3.97** | 100% |  | 90% | 100% | 80% | 67% | at least 90% | 100%
FC(F)C(F)(F)c1nn(-c2ncccn2)c(N=Cc2ccc(Cl)cc2)c1-c1cc(Cl)c2c(c1)OCO2 [Example 1-22] | 100% |  | 100% | 100% |  | 4.34** | 100% |  | 90% | 100% |  |  |  | 100%
CCOC=Nc1c(-c2cc(Cl)cc(C(F)(F)F)c2)c(C(F)(F)C(F)F)nn1-c1ncccn1 [Example 1-34] | 100% | 100% | 100% | 100% |  | 4.43** | 100% | 90% | 100% | 80% |  |  |  | 
CCOC=Nc1c(-c2cc(Cl)c3c(c2)OCO3)c(C(F)(F)C(F)F)nn1-c1ncccn1 [Example 1-35] | 100% |  | 100% | 100% |  | 3.42** | 100% |  | 90% | 100% | 100% |  |  | 100%
CC(C)OC=Nc1c(-c2cc(Cl)c3c(c2)OCO3)c(C(F)(F)C(F)F)nn1-c1ncccn1 [Example 1-38] | 100% |  | 100% | 100% |  | 3.66** | 100% |  | 100% | 100% | 100% |  |  | 100%
FC(F)(F)c1cc(Cl)cc(-c2c(C(F)(F)C(F)(F)F)nn(-c3ncccn3)c2N=Cc2ccc(Cl)cc2)c1 [Example 1-40] | 100% | 100% | 100% | 100% |  | 5.93** | 100% |  | 100% | 100% |  |  |  | 
COc1ccc(C=Nc2c(-c3cc(Cl)cc(C(F)(F)F)c3)c(C(F)(F)C(F)(F)F)nn2-c2ncccn2)cc1 [Example 1-41] | 100% | 100% | 100% | 100% |  | 5.4** | 100% |  | 100% | 100% |  |  |  | 
CCOC=Nc1c(-c2cc(Cl)cc(C(F)(F)F)c2)c(C(F)(F)C(F)(F)F)nn1-c1ncccn1 [Example 1-43] |  |  | 100% | 100% |  | 5.02** |  | 100% | 100% |  |  |  |  | 
CCOC=Nc1c(-c2cc(Cl)c3c(c2)OCO3)c(C(F)(F)F)nn1-c1nccnc1OC [Example 2-18] | 100% |  | 100% | 100% |  | 4.03** | 100% | 100% | 100% | 100% |  |  |  | 100%
COc1nccnc1-n1nc(C(F)(F)F)c(-c2cc(Cl)c3c(c2)OCO3)c1N=COC(C)C [Example 2-19] | 100% |  | 100% | 100% |  | 4.26** | 100% |  | 100% | 90% | 100% |  |  | 80%
